This is an account of results in patent publication US20020065219A1, “Water soluble thiazolyl peptide derivatives” (priority 2000, published 2002).

Assay [1] deals with Enterococcus faecalis A20688. In words: MIC, broth micro dilution assay (NCCLS). Format: cell-based. The settings on record: for MIC: Enterococcus faecalis, A20688, 18 h, read-out: MIC (μg/mL) against Enterococcus faecalis A20688.
Assay [2] relates to Staphylococcus aureus A15090. In words: MIC, broth micro dilution assay (NCCLS). The assay is classed as cell-based. The settings on record: for MIC: Staphylococcus aureus, A15090, 18 h, read-out: MIC (μg/mL) against Staphylococcus aureus A15090.
Assay [3] concerns Staphylococcus aureus A15090. In words: animal or person. Format: in vivo, female ICR mice. As to conditions: A15090, in Mus musculus, iv, 1 h, read-out: PD50 (dose which protects 50% of mice from mortality).
The subject of assay [4] is Streptococcus pneumoniae A28272. Nature of the assay: MIC, broth micro dilution assay (NCCLS). Format: cell-based. As to conditions: for MIC: Streptococcus pneumoniae, A28272, 18 h, read-out: MIC (μg/mL) against Streptococcus pneumoniae A28272.
Setting [5] is: Mueller-Hinton medium, 35° C., 18 hours.
The mark [6] stands for this setting: 50% Mueller-Hinton medium and 50% Todd Hewitt medium, 35° C., 18 hours.

In brackets after ≈: the same amount, converted by molar mass. Where two headings read alike, the source gives them in different places.

Take `CO/C(C)=C1/NC(=O)C(C(C)O)NC(=O)c2csc(n2)-c2cc(O)c(-c3nc(C(=O)NC(CN4CCN(C)CC4)C(N)=O)cs3)nc2-c2csc(n2)C2COC(=O)c3c4c5c(cccc5n3O)COC(=O)C(O[C@H]3C[C@](C)(O)[C@H](N(C)C)[C@H](C)O3)C(OC4)C(NC(=O)c3csc1n3)c1nc(cs1)C(=O)N2` (some centres unmarked) [Example 1]: the MIC in assay [1] came out at 0.5 µg/mL (≈ 0.325 µM); in assay [2] it was 0.25 µg/mL (≈ 0.163 µM); in assay [4], 0.125 µg/mL (≈ 0.0813 µM). In assay [3], the ED50 was 0.19 to 7.3 mg/kg.
Regarding `CO/C(C)=C1/NC(=O)C(C(C)O)NC(=O)c2csc(n2)-c2cc(O)c(-c3nc(C(=O)NC(CN(C)CCO)C(N)=O)cs3)nc2-c2csc(n2)C2COC(=O)c3c4c5c(cccc5n3O)COC(=O)C(O[C@H]3C[C@](C)(O)[C@H](N(C)C)[C@H](C)O3)C(OC4)C(NC(=O)c3csc1n3)c1nc(cs1)C(=O)N2` (some centres unmarked) [Example 2], the MIC in assay [1] was determined as 0.06 µg/mL (≈ 0.0397 µM); in assay [2], 0.015 µg/mL (≈ 0.00992 µM); in assay [4] it was 0.015 µg/mL (≈ 0.00992 µM). For the same compound, in assay [3], the ED50 is 0.19 to 7.3 mg/kg.
Take `CO/C(C)=C1/NC(=O)C([C@@H](C)O)NC(=O)c2csc(n2)-c2cc(O)c(-c3nc(C(=O)NC(CNCCCn4ccnc4)C(N)=O)cs3)nc2-c2csc(n2)[C@@H]2COC(=O)c3c4c5c(cccc5n3O)COC(=O)[C@@H](O[C@H]3C[C@](C)(O)[C@H](N(C)C)[C@H](C)O3)[C@H](OC4)[C@H](NC(=O)c3csc1n3)c1nc(cs1)C(=O)N2` (some centres unmarked) [Example 5]: the values for the MIC in assay [1], in assay [2] and in assay [4] were 1 µg/mL (≈ 0.64 µM), 1 µg/mL (≈ 0.64 µM) and 0.03 µg/mL (≈ 0.0192 µM), respectively. Moreover, the ED50 in assay [3] lay within 0.19 to 7.3 mg/kg.
On to `CO/C(C)=C1/NC(=O)C(C(C)O)NC(=O)c2csc(n2)-c2cc(O)c(-c3nc(C(=O)NC(CN(C)CCN(C)C)C(N)=O)cs3)nc2-c2csc(n2)C2COC(=O)c3c4c5c(cccc5n3O)COC(=O)C(O[C@H]3C[C@](C)(O)[C@H](N(C)C)[C@H](C)O3)C(OC4)C(NC(=O)c3csc1n3)c1nc(cs1)C(=O)N2` (some centres unmarked) [Example 9], for which the MIC in assay [1] came to 0.5 µg/mL (≈ 0.325 µM); in assay [2], 0.06 µg/mL (≈ 0.039 µM); in assay [4], 0.007 µg/mL (≈ 0.00455 µM). Further, the ED50 in assay [3] lay within 0.19 to 7.3 mg/kg.
On to `CO/C(C)=C1/NC(=O)C([C@@H](C)O)NC(=O)c2csc(n2)-c2cc(O)c(-c3nc(C(=O)NC(CN4CCOCC4)C(N)=O)cs3)nc2-c2csc(n2)[C@@H]2COC(=O)c3c4c5c(cccc5n3O)COC(=O)[C@@H](O[C@H]3C[C@](C)(O)[C@H](N(C)C)[C@H](C)O3)[C@@H](OC4)[C@H](NC(=O)c3csc1n3)c1nc(cs1)C(=O)N2` (some centres unmarked) [Example 8], for which the MIC in assay [1] was 0.125 µg/mL (≈ 0.082 µM); in assay [2], 0.015 µg/mL (≈ 0.00984 µM); in assay [4], 0.003 µg/mL (≈ 0.00197 µM). Besides, the ED50 in assay [3] was in the range of 0.19 to 7.3 mg/kg.
For `CO/C(C)=C1/NC(=O)C(C(C)O)NC(=O)c2csc(n2)-c2cc(O)c(-c3nc(C(=O)NC(CN(C)C)C(N)=O)cs3)nc2-c2csc(n2)C2COC(=O)c3c4c5c(cccc5n3O)COC(=O)C(O[C@H]3C[C@](C)(O)[C@H](N(C)C)[C@H](C)O3)C(OC4)C(NC(=O)c3csc1n3)c1nc(cs1)C(=O)N2` (some centres unmarked) [Example 7] the same measures were 0.125 µg/mL (≈ 0.0843 µM), 0.06 µg/mL (≈ 0.0405 µM), 0.03 µg/mL (≈ 0.0202 µM) and 0.19 to 7.3 mg/kg.
Consider `CO/C(C)=C1/NC(=O)C(C(C)O)NC(=O)c2csc(n2)-c2cc(O)c(-c3nc(C(=O)NC(CNCCc4ccccn4)C(N)=O)cs3)nc2-c2csc(n2)C2COC(=O)c3c4c5c(cccc5n3O)COC(=O)C(O[C@H]3C[C@](C)(O)[C@H](N(C)C)[C@H](C)O3)C(OC4)C(NC(=O)c3csc1n3)c1nc(cs1)C(=O)N2` (some centres unmarked) [Example 3], for which the MIC was 1 µg/mL (≈ 0.641 µM) in assay [1], 1 µg/mL (≈ 0.641 µM) in assay [2] and 0.25 µg/mL (≈ 0.16 µM) in assay [4]. Besides, the ED50 in assay [3] lay within 0.19 to 7.3 mg/kg.
Consider `CCN(CC)CCN(C)CC(NC(=O)c1csc(-c2nc3c(cc2O)-c2nc(cs2)C(=O)NC(C(C)O)C(=O)N/C(=C(\C)OC)c2nc(cs2)C(=O)NC2c4nc(cs4)C(=O)NC(COC(=O)c4c5c6c(cccc6n4O)COC(=O)C(O[C@H]4C[C@](C)(O)[C@H](N(C)C)[C@H](C)O4)C2OC5)c2nc-3cs2)n1)C(N)=O` (some centres unmarked) [Example 6], for which the MIC in assay [1] turned out to be 2 µg/mL (≈ 1.28 µM); in assay [2], 0.125 µg/mL (≈ 0.0797 µM); in assay [4], 0.03 µg/mL (≈ 0.0191 µM). Moreover, the ED50 in assay [3] was in the range of 0.19 to 7.3 mg/kg.
Take `COC(C)=C1NC(=O)C(C(C)O)NC(=O)c2csc(n2)-c2cc(O)c(-c3nc(C(=O)NC(CN4CCCC4C(O)c4nccn4C)C(N)=O)cs3)nc2-c2csc(n2)C2COC(=O)c3c4c5c(cccc5n3O)COC(=O)C(OC3CC(C)(O)C(N(C)C)C(C)O3)C(OC4)C(NC(=O)c3csc1n3)c1nc(cs1)C(=O)N2` (centres unmarked) [Example 91]: the “MIC (μg/mL) against Enterococcus faecalis A20688” value in assay [1] (setting [5]) worked out at 0.06 µg/mL (≈ 0.0371 µM). In addition, the “MIC (μg/mL) against Staphylococcus aureus A15090” value in assay [2] (setting [5]) is 0.03 µg/mL (≈ 0.0185 µM). For the same compound, the “MIC (μg/mL) against Streptococcus pneumoniae A28272” value in assay [4] (setting [6]) came to 0.015 µg/mL (≈ 0.00927 µM).
Take `CO/C(C)=C1/NC(=O)C(C(C)O)NC(=O)c2csc(n2)-c2cc(O)c(-c3nc(C(=O)NC(CSCCc4cnccn4)C(N)=O)cs3)nc2-c2csc(n2)C2COC(=O)c3c4c5c(cccc5n3O)COC(=O)C(O[C@H]3C[C@](C)(O)[C@H](N(C)C)[C@H](C)O3)C(OC4)C(NC(=O)c3csc1n3)c1nc(cs1)C(=O)N2` (some centres unmarked) [Example 62]: the “MIC (μg/mL) against Enterococcus faecalis A20688” value in assay [1] (setting [5]) is 0.25 µg/mL (≈ 0.158 µM). Further, in assay [2] (setting [5]), the “MIC (μg/mL) against Staphylococcus aureus A15090” value turned out to be 0.125 µg/mL (≈ 0.0792 µM). Moreover, the “MIC (μg/mL) against Streptococcus pneumoniae A28272” value in assay [4] (setting [6]) turned out to be 0.015 µg/mL (≈ 0.00951 µM).
For `COCCOCCOCCOCCN1CCN(CC(NC(=O)c2csc(-c3nc4c(cc3O)-c3nc(cs3)C(=O)NC(C(C)O)C(=O)N/C(=C(\C)OC)c3nc(cs3)C(=O)NC3c5nc(cs5)C(=O)NC(COC(=O)c5c6c7c(cccc7n5O)COC(=O)C(O[C@H]5C[C@](C)(O)[C@H](N(C)C)[C@H](C)O5)C3OC6)c3nc-4cs3)n2)C(N)=O)CC1` (some centres unmarked) [Example 69], in assay [1], the “MIC (μg/mL) against Enterococcus faecalis A20688” value was determined as 4.0 µg/mL (≈ 2.33 µM). Moreover, in assay [2], the “MIC (μg/mL) against Staphylococcus aureus A15090” value is 0.5 µg/mL (≈ 0.292 µM). Further, the “MIC (μg/mL) against Streptococcus pneumoniae A28272” value in assay [4] stood at 0.25 µg/mL (≈ 0.146 µM).
